# Experimental data as given in ChEMBL document CHEMBL1201862, “PubChem BioAssay data set” (2004).
#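 In this assay, cells in 96-well plates receive the compound at five concentrations for 48 hours. Endpoints are linearly interpolated between the surrounding concentrations. The concentration for 50% growth inhibition is given as GI50.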 Calls of active or inactive are those of the source. Cut-off read from the data, not from the text of the source: active = GI50 up to about 1.1 µM and inactive = higher.
# Tests used:
# Assay in all cases: DTP human tumour cell line panel, 48 h
# A498 = tested on: A498
# CCRF-CEM = tested on: CCRF-CEM
# COLO 205 = tested on: COLO 205
# EKVX = tested on: EKVX
# HCC 2998 = tested on: HCC 2998
# M14 = tested on: M14
# MOLT-4 = tested on: MOLT-4
# Malme-3M = tested on: Malme-3M
# OVCAR-8 = tested on: OVCAR-8
# RPMI-8226 = tested on: RPMI-8226
# RXF 393 = tested on: RXF 393
# SF-268 = tested on: SF-268
# SK-MEL-28 = tested on: SK-MEL-28
# SK-MEL-2 = tested on: SK-MEL-2
# SNB-75 = tested on: SNB-75
# SW-620 = tested on: SW-620
# U-251 = tested on: U-251
# UACC-257 = tested on: UACC-257
SMILES,GI50 (A498),GI50 (CCRF-CEM),GI50 (COLO 205),GI50 (EKVX),GI50 (HCC 2998),GI50 (M14),GI50 (MOLT-4),GI50 (Malme-3M),GI50 (OVCAR-8),GI50 (RPMI-8226),GI50 (RXF 393),GI50 (SF-268),GI50 (SK-MEL-28),GI50 (SK-MEL-2),GI50 (SNB-75),GI50 (SW-620),GI50 (U-251),GI50 (UACC-257)
COc1c(Cl)c2c(c(OC)c1OC)-c1ccc(OC)c(=O)c(Cl)c1C(NC(C)=O)CC2 (stereo unspecified),0.0593 µM (active),0.305 µM (active),0.194 µM (active),7.35 µM (inactive),0.182 µM (active),0.244 µM (active),0.345 µM (active),0.155 µM (active),0.353 µM (active),0.337 µM (active),0.0382 µM (active),0.212 µM (active),0.288 µM (active),0.284 µM (active),0.1 µM (active),0.12 µM (active),0.235 µM (active),0.14 µM (active)
COc1cc(C2c3cc4c(cc3[C@@H](OCCN(C)C)C3COC(=O)[C@H]23)OCO4)cc(OC)c1O (stereo partly specified),0.167 µM (active),0.0419 µM (active),2.85 µM (inactive),1.65 µM (inactive),–,0.384 µM (active),0.0165 µM (active),0.388 µM (active),0.583 µM (active),0.0472 µM (active),0.396 µM (active),0.33 µM (active),0.993 µM (active),1.29 µM (inactive),0.769 µM (active),0.579 µM (active),0.0849 µM (active),1.68 µM (inactive)
CC(C)(C)c1cc(COc2c3sc(=S)sc3c(OCc3cc(C(C)(C)C)cc(C(C)(C)C)c3)c3sc(=S)sc23)cc(C(C)(C)C)c1,> 100 µM (inactive),> 100 µM (inactive),> 100 µM (inactive),> 100 µM (inactive),> 100 µM (inactive),> 100 µM (inactive),> 100 µM (inactive),–,> 100 µM (inactive),> 100 µM (inactive),> 100 µM (inactive),–,> 100 µM (inactive),–,> 100 µM (inactive),> 100 µM (inactive),> 100 µM (inactive),> 100 µM (inactive)
Cn1c(=O)nc2n(-c3cc(C(F)(F)F)cc(C(F)(F)F)c3)c3ccccc3nc-2c1=O,> 100 µM (inactive),–,> 100 µM (inactive),> 100 µM (inactive),> 100 µM (inactive),> 100 µM (inactive),> 100 µM (inactive),> 100 µM (inactive),> 100 µM (inactive),> 100 µM (inactive),75.7 µM (inactive),> 100 µM (inactive),> 100 µM (inactive),> 100 µM (inactive),18.8 µM (inactive),> 100 µM (inactive),> 100 µM (inactive),> 100 µM (inactive)
O=C(Nc1ccccc1-c1nn(CO)c(=S)n(CO)c1=O)C(F)(F)F,–,> 100 µM (inactive),> 100 µM (inactive),> 100 µM (inactive),> 100 µM (inactive),> 100 µM (inactive),> 100 µM (inactive),> 100 µM (inactive),> 100 µM (inactive),–,> 100 µM (inactive),> 100 µM (inactive),> 100 µM (inactive),> 100 µM (inactive),92.3 µM (inactive),> 100 µM (inactive),> 100 µM (inactive),–
COc1c2c(cc3nc4ccccc4nc13)CCC(C(C)(C)O)C2 (stereo unspecified),> 100 µM (inactive),45.1 µM (inactive),69 µM (inactive),> 100 µM (inactive),> 100 µM (inactive),> 100 µM (inactive),32.4 µM (inactive),65.6 µM (inactive),> 100 µM (inactive),–,> 100 µM (inactive),> 100 µM (inactive),> 100 µM (inactive),> 100 µM (inactive),> 100 µM (inactive),> 100 µM (inactive),> 100 µM (inactive),> 100 µM (inactive)
O=C1C(O)=C(CN(CCCl)CCCl)C(=O)c2ccccc21,> 100 µM (inactive),42.3 µM (inactive),–,> 100 µM (inactive),97.5 µM (inactive),65.6 µM (inactive),29.3 µM (inactive),53.5 µM (inactive),76.9 µM (inactive),–,28 µM (inactive),43.1 µM (inactive),> 100 µM (inactive),> 100 µM (inactive),73.6 µM (inactive),53.2 µM (inactive),64.3 µM (inactive),–
CC1CC2(CC[C@@H]1O)OCCO2 (stereo partly specified),> 100 µM (inactive),> 100 µM (inactive),> 100 µM (inactive),> 100 µM (inactive),> 100 µM (inactive),> 100 µM (inactive),> 100 µM (inactive),> 100 µM (inactive),> 100 µM (inactive),> 100 µM (inactive),> 100 µM (inactive),–,–,> 100 µM (inactive),–,> 100 µM (inactive),> 100 µM (inactive),> 100 µM (inactive)
O=C1c2ccccc2NC1(c1ccccc1)c1c(-c2ccccc2)[nH]c2ccccc12 (stereo unspecified),32.8 µM (inactive),6.3 µM (inactive),6.12 µM (inactive),35.2 µM (inactive),36.6 µM (inactive),22.1 µM (inactive),2.91 µM (inactive),–,24.9 µM (inactive),3.88 µM (inactive),6.22 µM (inactive),–,37.5 µM (inactive),11.9 µM (inactive),24.7 µM (inactive),51.9 µM (inactive),14.4 µM (inactive),44 µM (inactive)
CCCCCCc1cc(C(=O)Nc2cccc(C(F)(F)F)c2)nc(N)n1,> 100 µM (inactive),> 100 µM (inactive),> 100 µM (inactive),> 100 µM (inactive),> 100 µM (inactive),> 100 µM (inactive),> 100 µM (inactive),> 100 µM (inactive),–,> 100 µM (inactive),> 100 µM (inactive),> 100 µM (inactive),> 100 µM (inactive),> 100 µM (inactive),> 100 µM (inactive),> 100 µM (inactive),> 100 µM (inactive),> 100 µM (inactive)
CCOC(=O)C(=O)Nc1ccc(Cl)c(C(F)(F)F)c1,–,> 100 µM (inactive),> 100 µM (inactive),> 100 µM (inactive),> 100 µM (inactive),> 100 µM (inactive),> 100 µM (inactive),> 100 µM (inactive),> 100 µM (inactive),> 100 µM (inactive),> 100 µM (inactive),> 100 µM (inactive),> 100 µM (inactive),> 100 µM (inactive),> 100 µM (inactive),> 100 µM (inactive),> 100 µM (inactive),> 100 µM (inactive)
O=C1c2c(nc3ccccc3c2-c2ccccc2)CN1Nc1ccccc1,–,> 100 µM (inactive),> 100 µM (inactive),> 100 µM (inactive),> 100 µM (inactive),> 100 µM (inactive),> 100 µM (inactive),> 100 µM (inactive),> 100 µM (inactive),> 100 µM (inactive),–,> 100 µM (inactive),–,> 100 µM (inactive),–,> 100 µM (inactive),–,> 100 µM (inactive)
CC(C)=CC(C(O)c1ccccc1)S(=O)(=O)c1nccn1C (stereo unspecified),–,> 100 µM (inactive),> 100 µM (inactive),> 100 µM (inactive),> 100 µM (inactive),> 100 µM (inactive),> 100 µM (inactive),> 100 µM (inactive),> 100 µM (inactive),> 100 µM (inactive),> 100 µM (inactive),> 100 µM (inactive),> 100 µM (inactive),> 100 µM (inactive),> 100 µM (inactive),> 100 µM (inactive),> 100 µM (inactive),> 100 µM (inactive)
COc1cc(CC(C(=O)O)C(=O)O)c(OC)cc1CC(C(=O)O)C(=O)O,> 100 µM (inactive),> 100 µM (inactive),> 100 µM (inactive),> 100 µM (inactive),–,> 100 µM (inactive),> 100 µM (inactive),> 100 µM (inactive),> 100 µM (inactive),> 100 µM (inactive),> 100 µM (inactive),> 100 µM (inactive),–,–,> 100 µM (inactive),> 100 µM (inactive),> 100 µM (inactive),> 100 µM (inactive)
CC(C)C(Sc1nc(-c2ccccc2)c(-c2ccccc2)[nH]1)C(=O)N/N=C/c1ccc([N+](=O)[O-])cc1 (stereo unspecified),20.5 µM (inactive),4.05 µM (inactive),11.3 µM (inactive),20.4 µM (inactive),–,7.33 µM (inactive),1.93 µM (inactive),13.9 µM (inactive),29.1 µM (inactive),11.5 µM (inactive),–,18.5 µM (inactive),15.5 µM (inactive),12.5 µM (inactive),18.8 µM (inactive),14.3 µM (inactive),14.6 µM (inactive),12.1 µM (inactive)
COc1ccc2nc(NC(=O)C(=O)NNC(=O)c3ccncc3)sc2c1,> 100 µM (inactive),> 100 µM (inactive),> 100 µM (inactive),> 100 µM (inactive),> 100 µM (inactive),> 100 µM (inactive),–,> 100 µM (inactive),> 100 µM (inactive),–,> 100 µM (inactive),> 100 µM (inactive),> 100 µM (inactive),–,> 100 µM (inactive),> 100 µM (inactive),> 100 µM (inactive),> 100 µM (inactive)
CCCCCCCCCc1cc(=O)c2ccc(O)cc2o1,–,16.9 µM (inactive),51.4 µM (inactive),> 100 µM (inactive),–,> 100 µM (inactive),23.6 µM (inactive),> 100 µM (inactive),27.1 µM (inactive),17.9 µM (inactive),31.4 µM (inactive),44.8 µM (inactive),> 100 µM (inactive),10.3 µM (inactive),17.2 µM (inactive),67.6 µM (inactive),33.8 µM (inactive),65.3 µM (inactive)
